Assay results taken from the supplement of paper PMC10307832.

The cell lines below were run with N#CC1(c2ccc(NC(=O)c3cccnc3NCc3ccncc3)cc2)CCCC1 [Apatinib] + C[C@@H](Oc1cc(-c2cnn(C3CCNCC3)c2)cnc1N)c1c(Cl)ccc(F)c1Cl [Crizotinib] (partner 1 µM) (assay: relative viability (nuclei count vs DMSO), 5 days (fraction); higher = more cells survive). Details: first compound 0.08 µM.
Procedure, shortened: (§1)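 Lung cancer cell lines were seeded in 1536-well plates and dosed by pin tool the next day, with either a single drug or a fixed anchor-drug dose combined with five library-drug doses (not always all listed) spaced in √10 steps. Five days later, one step fixed the cells and stained their nuclei (final 0.05% Triton X-100, 1% formaldehyde, 1 ug/ml Hoechst), and nuclei were counted on 4× images. Relative viability is the nuclei count in treated wells divided by the count in vehicle wells, and each value is the median of duplicate plates.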

Cell Line	relative viability
LU99A	0.585
LXF-289	0.797
NCI-H23	0.49
NCI-H322M	0.917
NCI-H441	0.789
NCI-H520	0.912
NCI-H596	0.923
NCI-H647	1.18
NCI-H650	0.664
NCI-H661	1.02
NCI-H727	0.756
NCI-H838	0.892
NCI-H1355	1.04
NCI-H1437	1.01
NCI-H1650	1.13
NCI-H1651	0.916
NCI-H1666	1.15

Cell Line	relative viability
NCI-H1734	0.67
NCI-H1755	0.858
NCI-H1792	0.97
NCI-H1915	0.945
NCI-H1975	1
NCI-H1993	0.943
NCI-H2009	1.05
NCI-H2023	0.717
NCI-H2085	0.89
NCI-H2087	0.89
NCI-H2126	1.03
NCI-H2347	0.795
NCI-H2405	0.936
NCI-H3122	0.3
PC-3 [JPC-3]	1.02
PC-14	0.925

Same assay, conditions: first compound 0.253 µM

Cell Line	relative viability
LU99A	0.55
LXF-289	0.817
NCI-H23	0.578
NCI-H322M	0.925
NCI-H441	0.756
NCI-H520	0.701
NCI-H596	1.12
NCI-H647	1.23
NCI-H650	0.843
NCI-H661	1.03
NCI-H727	0.693
NCI-H838	0.936
NCI-H1355	1.03
NCI-H1437	1
NCI-H1650	1.03
NCI-H1651	0.86
NCI-H1666	1.28

Cell Line	relative viability
NCI-H1734	0.812
NCI-H1755	0.885
NCI-H1792	0.988
NCI-H1915	0.864
NCI-H1975	0.967
NCI-H1993	0.868
NCI-H2009	1.1
NCI-H2023	0.737
NCI-H2085	0.794
NCI-H2087	0.799
NCI-H2126	0.945
NCI-H2347	0.751
NCI-H2405	0.863
NCI-H3122	0.246
PC-3 [JPC-3]	0.962
PC-14	0.99

Same assay, conditions: first compound 0.8 µM

Cell Line	relative viability
LU99A	0.526
LXF-289	0.778
NCI-H23	0.421
NCI-H322M	0.946
NCI-H441	0.809
NCI-H520	0.737
NCI-H596	1.07
NCI-H647	1
NCI-H650	0.676
NCI-H661	1.02
NCI-H727	0.719
NCI-H838	0.77
NCI-H1355	1.03
NCI-H1437	0.92
NCI-H1650	0.9
NCI-H1651	0.84
NCI-H1666	0.985

Cell Line	relative viability
NCI-H1734	0.76
NCI-H1755	0.911
NCI-H1792	0.949
NCI-H1915	0.855
NCI-H1975	0.78
NCI-H1993	0.782
NCI-H2009	1.02
NCI-H2023	0.69
NCI-H2085	0.797
NCI-H2087	0.741
NCI-H2126	1.07
NCI-H2347	0.772
NCI-H2405	0.883
NCI-H3122	0.256
PC-3 [JPC-3]	0.922
PC-14	0.841

Same assay, conditions: first compound 2.53 µM

Cell Line	relative viability
LU99A	0.444
LXF-289	0.749
NCI-H23	0.49
NCI-H322M	0.825
NCI-H441	0.416
NCI-H520	0.614
NCI-H596	0.861
NCI-H647	0.846
NCI-H650	0.562
NCI-H661	0.934
NCI-H727	0.679
NCI-H838	0.76
NCI-H1355	0.943
NCI-H1437	0.726
NCI-H1650	0.92
NCI-H1651	0.8
NCI-H1666	1.14

Cell Line	relative viability
NCI-H1734	0.596
NCI-H1755	0.803
NCI-H1792	0.96
NCI-H1915	0.819
NCI-H1975	0.814
NCI-H1993	0.801
NCI-H2009	0.814
NCI-H2023	0.699
NCI-H2085	0.777
NCI-H2087	0.614
NCI-H2126	0.957
NCI-H2347	0.578
NCI-H2405	0.762
NCI-H3122	0.27
PC-3 [JPC-3]	0.933
PC-14	0.863

Same assay, conditions: first compound 8 µM

Cell Line	relative viability
LU99A	0.458
LXF-289	0.742
NCI-H23	0.57
NCI-H322M	0.776
NCI-H441	0.426
NCI-H520	0.45
NCI-H596	0.969
NCI-H647	0.737
NCI-H650	0.43
NCI-H661	0.916
NCI-H727	0.583
NCI-H838	0.775
NCI-H1355	0.815
NCI-H1437	0.632
NCI-H1650	0.842
NCI-H1651	0.733
NCI-H1666	0.718

Cell Line	relative viability
NCI-H1734	0.579
NCI-H1755	0.769
NCI-H1792	0.832
NCI-H1915	0.78
NCI-H1975	0.78
NCI-H1993	0.68
NCI-H2009	0.698
NCI-H2023	0.643
NCI-H2085	0.623
NCI-H2087	0.7
NCI-H2126	0.894
NCI-H2347	0.645
NCI-H2405	0.811
NCI-H3122	0.328
PC-3 [JPC-3]	0.901
PC-14	0.915

What follows are cell lines tested with CN(C)C(=N)NC(=N)N [Metformin] + Nc1ncn([C@H]2C[C@H](O)[C@@H](CO)O2)c(=O)n1 [Decitabine] (partner 2 µM) in the same assay as above. Details: first compound 10 µM.
Procedure, shortened: as §1

Cell Line	relative viability
LU99A	0.798
LXF-289	0.312
NCI-H23	0.273
NCI-H322M	0.698
NCI-H520	0.463
NCI-H596	1.17
NCI-H647	0.316
NCI-H650	0.274
NCI-H661	0.562
NCI-H727	0.789
NCI-H838	0.478
NCI-H1355	0.402
NCI-H1437	0.641
NCI-H1650	0.326
NCI-H1651	0.485
NCI-H1666	0.66
NCI-H1734	0.502
NCI-H1755	0.685
NCI-H1792	0.449
NCI-H1975	0.334
NCI-H1993	0.616
NCI-H2009	0.367
NCI-H2023	0.224
NCI-H2085	0.498
NCI-H2087	0.251
NCI-H2126	0.554
NCI-H2347	0.532
NCI-H3122	0.343
PC-3 [JPC-3]	0.786
PC-14	0.27

Same assay, conditions: first compound 31.62 µM

Cell Line	relative viability
LU99A	0.765
LXF-289	0.367
NCI-H23	0.276
NCI-H322M	0.673
NCI-H441	0.236
NCI-H520	0.447
NCI-H596	1.12
NCI-H647	0.366
NCI-H650	0.313
NCI-H661	0.61
NCI-H727	0.897
NCI-H838	0.465
NCI-H1355	0.285
NCI-H1437	0.595
NCI-H1650	0.343
NCI-H1651	0.687
NCI-H1666	0.713

Cell Line	relative viability
NCI-H1734	0.425
NCI-H1755	0.535
NCI-H1792	0.428
NCI-H1915	0.263
NCI-H1975	0.402
NCI-H1993	0.681
NCI-H2009	0.366
NCI-H2023	0.223
NCI-H2085	0.453
NCI-H2087	0.231
NCI-H2126	0.592
NCI-H2347	0.597
NCI-H2405	0.783
NCI-H3122	0.371
PC-3 [JPC-3]	0.848
PC-14	0.291

Same assay, conditions: first compound 100 µM

Cell Line	relative viability
LU99A	0.723
LXF-289	0.345
NCI-H23	0.285
NCI-H322M	0.718
NCI-H441	0.262
NCI-H520	0.461
NCI-H596	1.06
NCI-H647	0.381
NCI-H650	0.314
NCI-H661	0.587
NCI-H727	0.89
NCI-H838	0.482
NCI-H1355	0.332
NCI-H1437	0.59
NCI-H1650	0.317
NCI-H1651	0.572

Cell Line	relative viability
NCI-H1666	0.649
NCI-H1734	0.435
NCI-H1755	0.643
NCI-H1792	0.482
NCI-H1915	0.255
NCI-H1975	0.65
NCI-H1993	0.672
NCI-H2009	0.351
NCI-H2023	0.203
NCI-H2085	0.484
NCI-H2087	0.294
NCI-H2126	0.557
NCI-H2347	0.605
NCI-H2405	0.756
NCI-H3122	0.361
PC-14	0.186

Same assay, conditions: first compound 316.23 µM

Cell Line	relative viability
LU99A	0.735
LXF-289	0.312
NCI-H23	0.324
NCI-H322M	0.675
NCI-H441	0.217
NCI-H520	0.423
NCI-H596	1.01
NCI-H650	0.301
NCI-H661	0.579
NCI-H838	0.396
NCI-H1355	0.355
NCI-H1437	0.593
NCI-H1650	0.402
NCI-H1651	0.476
NCI-H1666	0.619
NCI-H1734	0.442

Cell Line	relative viability
NCI-H1755	0.644
NCI-H1792	0.386
NCI-H1915	0.245
NCI-H1975	0.323
NCI-H1993	0.634
NCI-H2009	0.401
NCI-H2023	0.207
NCI-H2085	0.531
NCI-H2087	0.294
NCI-H2126	0.571
NCI-H2347	0.573
NCI-H2405	0.677
NCI-H3122	0.359
PC-3 [JPC-3]	0.841
PC-14	0.211

Same assay, conditions: first compound 1000 µM

Cell Line	relative viability
LU99A	0.849
LXF-289	0.378
NCI-H23	0.328
NCI-H322M	0.746
NCI-H441	0.262
NCI-H520	0.485
NCI-H596	1.11
NCI-H647	0.434
NCI-H650	0.312
NCI-H661	0.602
NCI-H727	1.1
NCI-H838	0.459
NCI-H1355	0.372
NCI-H1437	0.577
NCI-H1650	0.389
NCI-H1651	0.755
NCI-H1666	0.823
NCI-H1734	0.499
NCI-H1755	0.635
NCI-H1792	0.496
NCI-H1915	0.269
NCI-H1975	0.394
NCI-H1993	0.766
NCI-H2009	0.424
NCI-H2023	0.186
NCI-H2085	0.524
NCI-H2087	0.3
NCI-H2126	0.562
NCI-H2347	0.578
NCI-H2405	0.64
